Data as given in patent US12454534B2, “Pyrrolo[2,3-b]pyrazines as HPK1 inhibitor and the use thereof” (BEIGENE, LTD., priority 2019, dated 2025).

Tests used:
[1] = system: HEK293 cells; assay: HEK293 cell viability assay (CellTiter-Glo); type: cell-based; details: 3-day exposure, 0 to 10 μM
Description: Cytotoxicity on HEK293 Cells Proliferation (HEK293 Cell Viability Assay)
HEK293 cell line were used in this study. Cell lines were maintained in DMEM (Dulbecco's Modified Eagle Medium) supplemented with 10% fetal bovine serum (Thermo Fisher), 50 units/mL penicillin and streptomycin (Thermo Fisher) and kept at 37° C. in a humidified atmosphere containing 5% CO2 in air. Cell lines were reinstated from frozen stocks that were laid down within 50 passages from the original cells purchased. The growth-inhibitory activity of compounds in HEK293 cells was determined using CellTiter-Glo luminescent cell viability assay (Promega). 3000 cells per well were seeded into a 96-well plate to ensure logarithmic growth for 3 days treatment period. Cells were treated with a 10-point dilution series. The final compound concentration was from 0 to 10 μM. Following a 3-day exposure to the test compounds, 30 μL of CellTiter-Glo reagent was added into 100 μL cell culture medium per well. Mixture was mixed on an orbital shaker for 2 minutes to allow cell lysis, followed by 10 minutes of incubation at room temperature to allow development and stabilization of luminescent signal, which corresponded to the quantity of ATP and thus the quantity of metabolically active cells. Luminescent signal was measured using PHERAstar FS reader (BMG Labtech). IC50 values for cell viability were determined with Dotmatics.

[2] = target: T1, HPK1 kinase (aa1-346, Life Technologies) (Homo sapiens, UniProt Q92918); assay: HPK1 Kinase Activity Assay at 1 mM ATP (TR-FRET); type: biochemical; details: HPK1 40 nM, read-out: Enzymatic activity IC50
T1 construct: HPK1 kinase (aa1-346, Life Technologies); purchased Life Technologies
T1 sequence (Q92918 1-346): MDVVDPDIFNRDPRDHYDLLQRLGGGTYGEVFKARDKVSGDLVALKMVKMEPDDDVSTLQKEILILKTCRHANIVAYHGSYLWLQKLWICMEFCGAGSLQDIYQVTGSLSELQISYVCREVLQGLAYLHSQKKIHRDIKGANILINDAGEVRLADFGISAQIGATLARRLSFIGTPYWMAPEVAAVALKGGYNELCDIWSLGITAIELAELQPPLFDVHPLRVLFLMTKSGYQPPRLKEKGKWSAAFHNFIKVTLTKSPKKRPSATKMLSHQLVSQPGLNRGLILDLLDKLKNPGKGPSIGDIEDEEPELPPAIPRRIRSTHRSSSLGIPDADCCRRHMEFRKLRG
Description: HPK1 Kinase Activity Assay at 1 mM ATP
Compounds disclosed herein were tested for inhibition of HPK1 kinase (aa1-346, Life Technologies) activity in assays based on the time-resolved fluorescence-resonance energy transfer (TR-FRET) methodology. The assays were carried out in 384-well low volume black plates in a reaction mixture containing HPK1 kinase (40 nM), 1 mM ATP, 0.5 μM STK1 substrate and 0-10 μM compound in buffer containing 50 mM HEPES, 0.01% BSA, 0.1 mM Orthovanadate, 10 mM MgCl2, 1 mM DTT, pH=7.0, 0.005% Tween-20. The kinase was incubated with the compounds disclosed herein or DMSO for 60 minutes at room temperature and the reaction was initiated by the addition of ATP and STK1 substrate. After reaction at room temperature for 120 minutes, an equal volume of stop/detection solution was added according to the manufacturer's instruction (CisBio). The stop/detection solution contained STK Antibody-Cryptate and XL665-conjugated streptavidin in Detection Buffer. The TR-FRET signals (ratio of fluorescence emission at 665 nm over emission at 620 nm with excitation at 337 nm wavelength) were recorded on a PHERAstar FS plate reader (BMG Labtech). Phosphorylation of STK1 substrate led to the binding of STK Antibody-Cryptate to the biotinylated STK1 substrate, which places fluorescent donor (Eu^3+ cryptate) in close proximity to the accepter (Streptavidin-XL665), thus resulting in a high degree of fluorescence resonance energy transfer. The inhibition of HPK1 in presence of increasing concentrations of compounds was calculated based on the ratio of fluorescence at 665 nm to that at 620 nm. The IC50 for each compound was derived from fitting the data to the four-parameter logistic equation by Graphpad Prism software.

| Compound | IC50 [2] [nM] | IC50 ([1]; Homo sapiens, HEK293, 72 h) [nM] | IC50 [1] [nM] |
| --- | --- | --- | --- |
| Cc1cc(-c2cnc3[nH]cc(-c4ccc(C(=O)N(C)C)cc4)c3n2)cc2c1CCN(C)C2 [Example 1, 4-[2-(2,5-dimethyl-3,4-dihydro-1H-isoquinolin-7-yl)-5H-pyrrolo[2,3-b]pyrazin-7-yl]-N, N-dimethylbenzamide] | 24 | 3650 | – |
| Cc1cc(-c2c[nH]c3ncc(-c4cc(C)c5c(c4)CN(C)CC5)nc23)ccc1C(=O)N(C)C [Example 2, 4-(2-(2,5-dimethyl-1,2,3,4-tetrahydroisoquinolin-7-yl)-5H-pyrrolo[2,3-b]pyrazin-7-yl)-N, N, 2-trimethylbenzamide] | 26 | 3340 | – |
| COc1cc(-c2cnc3[nH]cc(-c4ccc(C(=O)N(C)C[C@H](C)O)cc4)c3n2)cc2c1CN(C)CC2 [Example 3, (S)—N-(2-hydroxypropyl)-4-(2-(8-methoxy-2-methyl-1,2,3,4-tetrahydroisoquinolin-6-yl)-5H-pyrrolo[2,3-b]pyrazin-7-yl)-N-methylbenzamide] | 12 | 1270 | – |
| COc1cc(-c2cnc3[nH]cc(-c4ccc(C(=O)N(C)C[C@H](C)O)c(C)c4)c3n2)cc2c1CN(C)CC2 [Example 6, (S)—N-(2-hydroxypropyl)-4-(2-(8-methoxy-2-methyl-1,2,3,4-tetrahydroisoquinolin-6-yl)-5H-pyrrolo[2,3-b]pyrazin-7-yl)-N, 2-dimethylbenzamide] | 32 | 5560 | – |
| COc1cc(-c2cnc3[nH]cc(-c4ccc(C(=O)N(C)C[C@@H](C)O)cc4)c3n2)cc2c1CN(C)CC2 [Example 10, (R)—N-(2-hydroxypropyl)-4-(2-(8-methoxy-2-methyl-1,2,3,4-tetrahydroisoquinolin-6-yl)-5H-pyrrolo[2,3-b]pyrazin-7-yl)-N-methylbenzamide] | 11 | 1420 | – |
| Cc1cc(-c2cnc3[nH]cc(-c4ccc(C(=O)N(C)CC(C)(C)O)cc4)c3n2)cc2c1CCN(C)C2 [Example 20, 4-(2-(2,5-dimethyl-1,2,3,4-tetrahydroisoquinolin-7-yl)-5H-pyrrolo[2,3-b]pyrazin-7-yl)-N-(2-hydroxy-2-methylpropyl)-N-methylbenzamide] | 65 | 3870 | – |
| Cc1cc(-c2cnc3[nH]cc(-c4ccc(C(=O)N(C)CC(C)(C)O)cc4)c3n2)cc2c1CCN(C)C2 [Example 38, 4-(2-(2,5-dimethyl-1,2,3,4-tetrahydroisoquinolin-7-yl)-5H-pyrrolo[2,3-b]pyrazin-7-yl)-N-(2-hydroxy-2-methylpropyl)-N-methylbenzamide] | 65 | – | 2190 |
| Cc1cc(-c2c[nH]c3ncc(-c4cc(C)c5c(c4)CN(CCC(=O)N[C@H]4CC[C@H](O)C4)CC5)nc23)ccc1C(=O)N(C)C [Example 56, 4-(2-(2-(3-(((1S, 3S)-3-hydroxycyclopentyl)amino)-3-oxopropyl)-5-methyl-1,2,3,4-tetrahydroisoquinolin-7-yl)-5H-pyrrolo[2,3-b]pyrazin-7-yl)-N, N, 2-trimethylbenzamide] | 93 | – | – |
| COc1cc(-c2cnc3[nH]cc(-c4ccc(C(=O)N(C)C[C@@H]5CCOC5)cc4)c3n2)cc2c1CN(C)CC2 [Example 57, (S)-4-(2-(8-methoxy-2-methyl-1,2,3,4-tetrahydroisoquinolin-6-yl)-5H-pyrrolo[2,3-b]pyrazin-7-yl)-N-methyl-N-((tetrahydrofuran-3-yl)methyl)benzamide] | 14 | – | – |
| Cc1cc(-c2cnc3[nH]cc(-c4ccc(C(=O)N(C)CCC#N)cc4)c3n2)cc2c1CCN(C)C2 [Example 59, N-(2-cyanoethyl)-4-(2-(2,5-dimethyl-1,2,3,4-tetrahydroisoquinolin-7-yl)-5H-pyrrolo[2,3-b]pyrazin-7-yl)-N-methylbenzamide] | 16 | – | – |

More lines, in order of falling IC50 [2], values ahead:

| IC50 [2] [nM] | Compound | IC50 ([1]; Homo sapiens, HEK293, 72 h) [nM] | IC50 [1] [nM] |
| --- | --- | --- | --- |
| 89 | Cc1cc(-c2c[nH]c3ncc(-c4cc(C)c5c(c4)CN(CCC(=O)NCC4CC4)CC5)nc23)ccc1C(=O)N(C)C [Example 55, 4-(2-(2-(3-((cyclopropylmethyl)amino)-3-oxopropyl)-5-methyl-1,2,3,4-tetrahydroisoquinolin-7-yl)-5H-pyrrolo[2,3-b]pyrazin-7-yl)-N, N, 2-trimethylbenzamide] | – | – |
| 88 | Cc1cc(-c2c[nH]c3ncc(-c4cc(C)c5c(c4)CN(C)CC5)nc23)ccc1C(=O)N1CC2(COC2)C1 [Example 16, (4-(2-(2,5-dimethyl-1,2,3,4-tetrahydroisoquinolin-7-yl)-5H-pyrrolo[2,3-b]pyrazin-7-yl)-2-methylphenyl) (2-oxa-6-azaspiro[3.3]heptan-6-yl)methanone] | > 10000 | – |
| 78 | Cc1cc(-c2c[nH]c3ncc(-c4cc(C)c5c(c4)CN(CCC(=O)N[C@@H]4CCCOC4)CC5)nc23)ccc1C(=O)N(C)C [Example 53, (R)—N, N, 2-trimethyl-4-(2-(5-methyl-2-(3-oxo-3-((tetrahydro-2H-pyran-3-yl)amino)propyl)-1,2,3,4-tetrahydroisoquinolin-7-yl)-5H-pyrrolo[2,3-b]pyrazin-7-yl)benzamide] | – | – |
| 74 | COCCCNC(=O)CN1CCc2c(C)cc(-c3cnc4[nH]cc(-c5ccc(C(=O)N(C)C)c(C)c5)c4n3)cc2C1 [Example 52, 4-(2-(2-(2-((3-methoxypropyl)amino)-2-oxoethyl)-5-methyl-1,2,3,4-tetrahydroisoquinolin-7-yl)-5H-pyrrolo[2,3-b]pyrazin-7-yl)-N, N, 2-trimethylbenzamide] | – | – |
| 71 | CN1CCc2c(cc(-c3cnc4[nH]cc(-c5ccc(C(=O)N(C)C)cc5)c4n3)cc2C(F)F)C1 [Example 95, 4-(2-(5-(difluoromethyl)-2-methyl-1,2,3,4-tetrahydroisoquinolin-7-yl)-5H-pyrrolo[2,3-b]pyrazin-7-yl)-N, N-dimethylbenzamide] | 5180 | – |
| 68 | Cc1cc(-c2c[nH]c3ncc(-c4cc(C)c5c(c4)CN(CCC(=O)N[C@H]4CCC[C@H]4O)CC5)nc23)ccc1C(=O)N(C)C [Example 54, 4-(2-(2-(3-(((1S, 2R)-2-hydroxycyclopentyl)amino)-3-oxopropyl)-5-methyl-1,2,3,4-tetrahydroisoquinolin-7-yl)-5H-pyrrolo[2,3-b]pyrazin-7-yl)-N, N, 2-trimethylbenzamide] | – | – |
| 43 | Cc1cc(-c2c[nH]c3ncc(-c4cc(C)c5c(c4)CCN(C)C5)nc23)ccc1C(=O)N(C)C [Example 126, 4-(2-(2,8-dimethyl-1,2,3,4-tetrahydroisoquinolin-6-yl)-5H-pyrrolo[2,3-b]pyrazin-7-yl)-N, N, 2-trimethylbenzamide] | > 10000 | – |
| 21 | COc1cc(-c2cnc3[nH]cc(-c4ccc(C(=O)N(C)C)cc4)c3n2)cc2c1CN(CC(C)(C)O)CC2 [Example 58, 4-(2-(2-(2-hydroxy-2-methylpropyl)-8-methoxy-1,2,3,4-tetrahydroisoquinolin-6-yl)-5H-pyrrolo[2,3-b]pyrazin-7-yl)-N, N-dimethylbenzamide] | – | – |
| 21 | [2H]C([2H])([2H])N(C(=O)c1ccc(-c2c[nH]c3ncc(-c4cc(C)c5c(c4)CCN(C)C5)nc23)cc1C)C([2H])([2H])[2H] [Example 128, 4-(2-(2,8-dimethyl-1,2,3,4-tetrahydroisoquinolin-6-yl)-5H-pyrrolo[2,3-b]pyrazin-7-yl)-2-methyl-N,N-bis(methyl-d3)benzamide] | – | – |
| 17 | COc1cc(-c2cnc3[nH]cc(-c4ccc(C(=O)N5CC6(COC6)C5)cc4)c3n2)cc2c1CN(C)CC2 [Example 15, (4-(2-(8-methoxy-2-methyl-1,2,3,4-tetrahydroisoquinolin-6-yl)-5H-pyrrolo[2,3-b]pyrazin-7-yl)phenyl) (2-oxa-6-azaspiro[3.3]heptan-6-yl)methanone] | 1040 | – |
